According to patent publication US20260200928A1, “THERAPEUTIC COMPOUNDS” (Sanofi, priority 2022, published 2026):

Each compound was assayed against T1, human IL-17A (Homo sapiens, UniProt Q16552) (assay: IL-17A AlphaLISA competition assay (block of IL-17A binding to its receptor IL-17RA)). Settings: mean IC50 (n≥2), block of IL-17A binding to IL-17RA.
T1 construct: purchased R&D Systems 7955-IL/CF
T1 sequence (Q16552 24-155): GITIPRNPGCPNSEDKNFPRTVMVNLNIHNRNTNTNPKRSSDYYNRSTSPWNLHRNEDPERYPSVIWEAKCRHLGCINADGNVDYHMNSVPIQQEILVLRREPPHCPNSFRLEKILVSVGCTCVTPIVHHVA
Summary of the method: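 Bead-based AlphaLISA competition in PBS with 0.05% Tween-20 and 0.1% BSA: compound first meets human IL-17A (7.5 nM stock) for 30 min, then IL-17RA/Fc (5 nM stock) for 90 min, all at room temperature, before acceptor/donor bead capture. IC50 fitted 4-parameter, DMSO and 4 μM reference inhibitor as controls; at least duplicate.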

Row | Compound | IC50 [µM]
1 | COCC(NC(=O)CCC(F)(F)F)c1ccnc(NC(=O)[C@@H](NC(=O)c2nccn2C(C)C)C2CCC(F)(F)CC2)c1 (single isomer, unassigned) [Example 148] | 8.28
2 | CC(C)(C)OC(=O)N[C@H](C(=O)Nc1cc(C(NC(=O)CCC(F)(F)F)C2CC2)ccn1)[C@H]1CC[C@H](C)CC1 (single isomer, unassigned) [Example 73] | 1.01
3 | CC1(C)CN(Cc2ccnc(NC(=O)[C@@H](NC(=O)c3nonc3C3CC3)[C@H]3CC[C@H](C)CC3)c2)C(=O)N1 [Example 25, 4-Cyclopropyl-N—((S)-2-((4-((4,4-dimethyl-2-oxoimidazolidin-1-yl)methyl)pyridin-2-yl)amino)-1-((1r,4S)-4-methylcyclohexyl)-2-oxoethyl)-1,2,5-oxadiazole-3-carboxamide] | 0.105
4 | C[C@H]1CC[C@H]([C@@H](NC(=O)OCc2ccccc2)C(=O)Nc2cc(CN3C[C@H](C(F)(F)F)NC3=O)ccn2)CC1 [Example 5, Benzyl ((S)-1-((1r,4S)-4-methylcyclohexyl)-2-oxo-2-((4-(((S)-2-oxo-4-(trifluoromethyl)imidazolidin-1-yl)methyl)pyridin-2-yl)amino)ethyl)carbamate] | 0.179
5 | CCc1nocc1C(=O)NC(C(=O)Nc1cc(C(NC(=O)CCC(F)(F)F)C2CC2)ccn1)C1CCC(F)(F)CC1 (centres unmarked) [Example 49, N-(2-((4-(cyclopropyl(4,4,4-trifluorobutanamido)methyl)pyridin-2-yl)amino)-1-(4,4-difluorocyclohexyl)-2-oxoethyl)-3-ethylisoxazole-4-carboxamide] | 0.776

Further compounds by falling IC50, results first:

Row | IC50 [µM] | Compound
6 | 0.102 | COC[C@H](c1ccnc(NC(=O)[C@@H](NC(=O)c2ccnn2C(C)C)C2CCC(F)(F)CC2)c1)N1CC(F)(F)CNC1=O [Example 181, N-((S)-2-((4-((S)-1-(5,5-difluoro-2-oxotetrahydropyrimidin-1(2H)-yl)-2-methoxyethyl)pyridin-2-yl)amino)-1-(4,4-difluorocyclohexyl)-2-oxoethyl)-1-isopropyl-1H-pyrazole-5-carboxamide]
7 | 0.073 | COCC(NC(=O)CCC(F)(F)F)c1ccnc(NC(=O)C(NC(=O)c2ccnn2C)C2CCC(C)CC2)c1 [Example 245, N-((1S)-2-((4-(2-methoxy-1-(4,4,4-trifluorobutanamido)ethyl)pyridin-2-yl)amino)-1-((1r,4S)-4-methylcyclohexyl)-2-oxoethyl)-1-methyl-1H-pyrazole-5-carboxamide]
8 | 0.06 | COCC(c1ccnc(NC(=O)[C@@H](NC(=O)c2conc2C(C)C)[C@H]2CC[C@H](C)CC2)c1)N1C[C@@H](C(F)(F)F)NC1=O (single isomer, unassigned) [Example 77]
9 | 0.048 | CCc1nonc1C(=O)N[C@H](C(=O)Nc1cc(C[C@H]2C[C@@H](C(F)(F)F)NC2=O)ccn1)C1CCC(F)(F)CC1 [Example 220, N-((S)-1-(4,4-difluorocyclohexyl)-2-oxo-2-((4-(((3S,5S)-2-oxo-5-(trifluoromethyl)pyrrolidin-3-yl)methyl)pyridin-2-yl)amino)ethyl)-4-ethyl-1,2,5-oxadiazole-3-carboxamide]
10 | 0.029 | CCn1nccc1C(=O)N[C@H](C(=O)Nc1cc(C[C@H]2C[C@@H](C(F)(F)F)NC2=O)ccn1)[C@H]1CC[C@H](C)CC1 [Example 155, 1-ethyl-N—((S)-1-((1r,4S)-4-methylcyclohexyl)-2-oxo-2-((4-(((3S,5S)-2-oxo-5-(trifluoromethyl)pyrrolidin-3-yl)methyl)pyridin-2-yl)amino)ethyl)-1H-pyrazole-5-carboxamide]
11 | 0.019 | CCc1nonc1C(=O)N[C@H](C(=O)Nc1cc([C@@H](COC)N2CC(F)(F)CNC2=O)ccn1)C1CCC(F)(F)CC1 [Example 182, N-((S)-2-((4-((S)-1-(5,5-difluoro-2-oxotetrahydropyrimidin-1(2H)-yl)-2-methoxyethyl)pyridin-2-yl)amino)-1-(4,4-difluorocyclohexyl)-2-oxoethyl)-4-ethyl-1,2,5-oxadiazole-3-carboxamide]
